Results from ChEMBL document CHEMBL1154771, “Discovery of the first series of small molecule H5N1 entry inhibitors” (J Med Chem, 2009).

Assays:
Type in all cases: cell-based
[1] = Inhibition of Influenza A virus (A/Viet Nam/1203/2004(H5N1)) hemagglutininin-mediated viral entry into human A549 cells assessed as luciferase activity after 48 hrs postinfection by luminometry
[2] = Inhibition of Influenza A virus (A/Bar-headed Goose/Qinghai/59/05(H5N1)) hemagglutininin-mediated viral entry into human A549 cells assessed as luciferase activity after 48 hrs postinfection by luminometry
A549 [3] = assay: Inhibition of Vesicular stomatitis virus envelope glycoprotein-mediated viral entry into human A549 cells assessed as infectivity at 10 uM after 48 hrs postinfection by luciferase assay relative to control; parameters: scale not given: the % may be the effect or the level left
A549 [4] = assay: Inhibition of Influenza A virus (A/Viet Nam/1203/2004(H5N1)) hemagglutininin-mediated viral entry into human A549 cells assessed as infectivity at 10 uM after 48 hrs postinfection by luciferase assay relative to control; parameters: scale not given: the % may be the effect or the level left
A549 [5] = assay: Inhibition of Influenza A virus (A/Bar-headed Goose/Qinghai/59/05(H5N1)) hemagglutininin-mediated viral entry into human A549 cells assessed as infectivity at 10 uM after 48 hrs postinfection by luciferase assay relative to control; parameters: scale not given: the % may be the effect or the level left

SMILES | IC50 [1] | IC50 [2] | Activity (A549 [3]) | Activity (A549 [4]) | Activity (A549 [5])
Cc1cn([C@H]2C[C@H](N=[N+]=[N-])[C@@H](CO)O2)c(=O)[nH]c1=O [ZIDOVUDINE] | 0.011 µM | 0.012 µM | 0.015% |  | 
C[C@@H]1CC[C@@]2(OC1)O[C@H]1C[C@H]3[C@@H]4C[C@H](O)[C@H]5C[C@@H](O[C@@H]6O[C@H](CO)[C@@H](O[C@@H]7O[C@@H](C)[C@H](O)[C@@H](O)[C@H]7O)[C@H](O)[C@H]6O)CC[C@]5(C)[C@H]4CC[C@]3(C)[C@H]1[C@@H]2C |  |  | 117% | 87.4% | 98.2%
C[C@@H]1O[C@@H](O[C@H]2[C@H](O[C@H]3CC[C@@]4(C)C(=CC[C@@H]5[C@@H]4CC[C@]4(C)C(=O)CC[C@@H]54)C3)O[C@H](CO)[C@@H](O[C@@H]3O[C@@H](C)[C@H](O)[C@@H](O)[C@H]3O)[C@@H]2O)[C@H](O)[C@H](O)[C@H]1O |  |  | 100% | 106% | 108%
CC(=O)O[C@H]1C[C@@H]2[C@H](CC[C@]3(C)[C@@H]4[C@H](C[C@@H]23)O[C@]2(CC[C@@H](C)CO2)[C@H]4C)[C@@]2(C)CC[C@H](O[C@@H]3O[C@H](CO)[C@@H](O[C@@H]4O[C@@H](C)[C@H](O)[C@@H](O)[C@H]4O)[C@H](O)[C@H]3O[C@@H]3O[C@@H](C)[C@H](O)[C@@H](O)[C@H]3O)C[C@H]12 | 9.25 µM | 7.58 µM | 101% | 46.6% | 50.4%
C[C@@H](CO)CC[C@H]1O[C@H]2C[C@H]3[C@@H]4C[C@H](O)[C@H]5C[C@@H](O[C@@H]6O[C@H](CO)[C@@H](O[C@@H]7O[C@@H](C)[C@H](O)[C@@H](O)[C@H]7O)[C@H](O)[C@H]6O[C@@H]6O[C@@H](C)[C@H](O)[C@@H](O)[C@H]6O)CC[C@]5(C)[C@H]4CC[C@]3(C)[C@H]2[C@@H]1C |  |  | 111% | 102% | 97.9%
CCC(/C=C/[C@@H](C)[C@H]1CC[C@H]2[C@@H]3CC=C4C[C@@H](O[C@@H]5O[C@H](CO)[C@@H](O[C@@H]6O[C@@H](C)[C@H](O)[C@@H](O)[C@H]6O)[C@H](O)[C@H]5O[C@@H]5O[C@@H](C)[C@H](O)[C@@H](O)[C@H]5O)CC[C@]4(C)[C@H]3CC[C@]12C)C(C)C (stereo partly specified) |  |  | 76.2% | 64.6% | 73.6%
COC(=O)[C@]12CCC(C)(C)C[C@H]1C1=CC[C@@H]3[C@@]4(C)CC[C@H](O[C@@H]5O[C@H](CO)[C@@H](O[C@@H]6O[C@@H](C)[C@H](O)[C@@H](O)[C@H]6O)[C@H](O)[C@H]5O[C@@H]5O[C@@H](C)[C@H](O)[C@@H](O)[C@H]5O)C(C)(C)[C@@H]4CC[C@@]3(C)[C@]1(C)CC2 |  |  | 48.4% | 17.5% | 35.3%
COC(=O)[C@]12CC[C@@H](C)[C@H](C)[C@H]1C1=CC[C@@H]3[C@@]4(C)CC[C@H](O[C@@H]5O[C@H](CO)[C@@H](O[C@@H]6O[C@@H](C)[C@H](O)[C@@H](O)[C@H]6O)[C@H](O)[C@H]5O[C@@H]5O[C@@H](C)[C@H](O)[C@@H](O)[C@H]5O)C(C)(C)[C@@H]4CC[C@@]3(C)[C@]1(C)CC2 | 8.54 µM | 6 µM | 86% | 43.3% | 37.7%
C[C@@H]1CC[C@@]2(OC1)O[C@H]1C[C@H]3[C@@H]4C[C@H](O)[C@H]5C[C@@H](O[C@@H]6O[C@H](CO)[C@@H](O)[C@H](O)[C@H]6O[C@@H]6O[C@@H](C)[C@H](O)[C@@H](O)[C@H]6O)CC[C@]5(C)[C@H]4CC[C@]3(C)[C@H]1[C@@H]2C |  |  | 122% | 57.9% | 61%
C[C@@H]1CC[C@@]2(OC1)O[C@H]1C[C@H]3[C@@H]4C[C@H](O)[C@H]5C[C@@H](O[C@@H]6O[C@H](CO)[C@@H](O[C@@H]7O[C@@H](C)[C@H](O)[C@@H](O)[C@H]7O)[C@H](O)[C@H]6O[C@@H]6O[C@@H](C)[C@H](O)[C@@H](O)[C@H]6O)CC[C@]5(C)[C@H]4CC[C@]3(C)[C@H]1[C@@H]2C | 7.84 µM | 7.22 µM | 111% | 36.3% | 42.6%
